Assay results: patent publication US20250034525A1, “CONSTRUCTION METHOD, DETECTION METHOD, AND APPLICATION OF IN VITRO TISSUE MODEL OF DIABETIC CARDIOMYOPATHY” (HUBEI UNIVERSITY, priority 2023, published 2025)

Assays:
Type in all cases: cell-based
[1] = tested on: human engineered heart tissue (hEHT); experiment: Optical mapping detection of human EHT electrical conduction
Method: 1) The electrode was made of 0.2 mm platinum wire, and the conductive function was tested using a sealed membrane nickel wire interface.
2) Fluo-4/RHOD2 was dissolved in DMSO (dimethyl sulfoxide) with a volume ratio of 1:1 to prepare a stock solution, which was then added into EHT medium at a ratio of 1:1,000 (working solution), incubated at 37° C. for 20 min, followed by washing with DPBS twice, then incubated with serum-free EHT medium at 37° C.
3) Preparation of medium for imaging: 10 μM Blebbistatin was added into the Tyrode's Solution or serum-free EHT medium in a volume ratio of 1:2,000 for imaging. The medium for imaging was added into a PDMS dish, the EHT was fixed on the dish with a specimen needle, put in a 41° C. temperature control chamber, and the electrode was put on one side of the EHT; an optical mapping camera was used for formal imaging, and the preview speed of 600 ms was recorded in 10 seconds, then recording was conducted in the cases where there was no electrical stimulation and 1 Hz electrical stimulation, respectively, in which the laser intensity was MAX: 12-16%.
The collected data were analyzed by optical mapping software.

[2] = tested on: human engineered heart tissue (hEHT); experiment: Contractility detection of human EHT by mechanical assay (force transducer, stretch)
Method: 1) After EHT was constructed and cultured for 5-7 days (the medium was changed every other day), the EHTs had good structure and beat regularly.
(§1) 2) EHT was stimulated by 500 μM PA, and for the control group, it contained the same concentration of BSA and ethanol. After 24 hours and 72 hours of stimulation, the supernatant and tissue samples were collected for functional detection.
3) A contractility detection system by mechanical assay: the mechanical characteristics of the bundle were detected by using a mechanical measurement platform, in which the bath, platinum electrode, tissue fixation device, and assembly form were self-designed, and other components such as sensors, amplifiers, digital-to-analog converters, data acquisition software, stepper motors, supporting components, temperature controllers and stimulators were all commercially available and assembled in-house after procurement.
4) Experimental steps for contractility detection by mechanical assay: the instrument was preheated for 30 minutes in advance, and the sensor was calibrated with precision weights by gravity. The Tyrode's Solution containing 1.8 mM CaCl2 was put into a 37° C. water bath for preheating in advance, and the platform was set to 37° C. The bundle was dipped into the Tyrode's Solution, and both ends were fixed with specimen needles, wherein one of which was fixed on the sensor and the other was fixed on the bath. Data were collected after the microstructure was balanced for 2 min. Start the electrical stimulator, and stimulate the bundle electrically at a voltage of 10 V and frequencies of 1, 1.5, 2, 2.5, and 3 Hz. Start the stepper motor to control software to start the programmed stretching program, and stretch the bundle from the initial state (8 mm) by 12% (0.96 mm) of the initial length, stretching 2% (0.16 mm) each time, collecting data for 40 s in each stretching state, and collecting contraction force data under different stretching states. After stretching, end the collection and save the data. The collected data were analyzed by the customized program MATLAB software.

[3] = tested on: human pluripotent stem cell-derived cardiomyocytes; experiment: CCK8 survival rate of human pluripotent stem cell-derived cardiomyocytes (planar monolayer); details: 250 μM PA, 24 h, versus 30 mM Glucose and 10 nM ET-1 + glucocorticoid, single or combined factors
Method: FIG. 2A-FIG. 2B show the results of confirming the effects of different metabolic factors on survival rate of the cardiomyocytes in the present disclosure.
3) Diluting PA with a final concentration of 250 μM, 500 μM, and 750 μM using cells or EHT medium to stimulate human-derived cardiomyocytes or EHTs. An equivalent amount of ethanol was dissolved in 10% BSA, which was diluted with medium finally as a control solution.
In the present disclosure, firstly, differentiated human cardiomyocytes were paved into planar monolayer cells, and then the cell survival rate was detected by adding 30 mM Glucose, 250 μM PA, 10 nM endothelin (ET-1) and […] glucocorticoid to the medium as single or combined factor(s), respectively, it is identified that the most obvious diabetic stimulus factor for cardiomyocyte injury was PA (FIG. 2A-FIG. 2B). Furthermore, different concentrations of PA were used to stimulate cardiomyocytes, and the concentration and time-dependent effects were evaluated (FIG. 3A). The injury effect of PA was determined through myocardial injury marker LDH (FIG. 3B).

[4] = tested on: human engineered heart tissue (hEHT); experiment: H&E staining and immunofluorescence staining of human EHT (fibrosis)
Method: For the morphological and histological observation after Bundle stimulation, the tissue was first treated by conventional paraffin embedding methods, and then the tissue was stained by basic staining and immunofluorescence staining after slicing. The specific steps were as follows: • (1) Cleaning the bundle twice using DPBS without calcium and magnesium ions. • (2) Fixing the bundle with 4% PFA (Paraformaldehyde) at room temperature for 15 min. • (3) Placing the fixed bundle in a paraffin tissue embedding frame and rinsing it with running water for 2 h. • (4) The […] bundle was subjected to gradient dehydrating and wax dipping using a Dewaxer (Hisure Scientific Co., Ltd.) with a total of 12 cylinders under the following conditions: 70% ethanol for 1 h, 80% ethanol for 1 h, 80% ethanol for 0.5 h, 90% ethanol for 0.5 h, 90% ethanol for 0.5 h, 100% ethanol for 0.5 h, xylene for 0.5 h, xylene for 0.5 h, paraffin at 63° C. for 5 min, paraffin at 63° C. for 5 min and paraffin at 63° C. for 5 min. • (5) After the dehydrated Bundle was placed at the bottom of the iron frame molding tool with an appropriate size, the plastic embedding frame was placed on the iron frame molding tool, and then placed on the freezing platform. […] After adding the anti-fluorescence quencher dropwise, the coverslip was covered, and the slide was mounted with nail polish.

[5] = tested on: human engineered heart tissue (hEHT); experiment: LDH myocardial injury marker in hEHT model; details: 500 μM PA, 72 h stimulation
Method: In the present disclosure, an in vitro tissue model of diabetic cardiomyopathy obtained by the above construction method is also provided. According to the disclosure, it is identified that a diabetic cardiomyopathy tissue model is generated with myocardial contractility that ranges from unchanged (1 day) to decreased (3 days), concomitant with the appearance of a myocardial fibrosis phenotype by dynamic stimulation of hEHT with 500 μM PA.
as §1

[6] = Empagliflozin added with 500 μM PA, 24 hours' stimulation

Row | Structure (SMILES) | APD80 of PA-stimulated human EHT [1, 6] | contraction amplitude of PA-stimulated human EHT [1, 6] | electric signal conduction velocity of PA-stimulated human EHT [1, 6] | number of abnormal diastolic peaks of PA-stimulated hEHT ([2]; Empagliflozin added with 500 μM PA, under stretch conditions) | cardiomyocyte survival rate (CCK8) [3] | pathological changes and level of fibrosis inside human EHT ([4]; 24 hours after PA stimulation) | fibrosis inside the heart tissue ([4]; 72 hours after PA stimulation) | APD50 ([1]; 500 μM PA, 6 h stimulation) | APD80 ([1]; 500 μM PA, 6 h stimulation) | contraction amplitude ([1]; 500 μM PA, 6 h stimulation) | electric signal conduction velocity ([1]; 500 μM PA, 6 h stimulation) | abnormal relaxation (diastolic) peak ([2]; 500 μM PA, 24 h stimulation) | myocardial relaxation time (diastolic duration) ([2]; 500 μM PA, 24 h stimulation) | positive contractility (contraction force) ([2]; 500 μM PA, 24 h stimulation) | abnormal peaks (diastolic) ([2]; 500 μM PA, 72 h stimulation) | inotropic force (contraction force) ([2]; 500 μM PA, 72 h stimulation) | relaxation time (diastolic duration) ([2]; 500 μM PA, 72 h stimulation) | LDH [5]
1 | OC[C@H]1O[C@@H](c2ccc(Cl)c(Cc3ccc(O[C@H]4CCOC4)cc3)c2)[C@H](O)[C@@H](O)[C@@H]1O [Empagliflozin] | improved | effectively recover | effectively recover | reduced number | – | – | – | – | – | – | – | – | – | – | – | – | – | –
2 | CCCCCCCCCCCCCCCC(=O)O [PA, palmitic acid] | – | – | – | – | lowest | no obvious pathological changes and changes in the level of fibrosis | obvious fibrosis | obviously increased | obviously increased | not decreased | not decreased | abnormal relaxation peak | prolonged | did not affect | more frequent | significant decrease | more frequent prolongation | increased significantly
